Measured values taken from patent US12365686B2, “Compound as porcupine inhibitor and use thereof” (JIANGSU KANION PHARMACEUTICAL CO., LTD., priority 2019, dated 2025).
Structures can show the parent of a compound that is named as a salt.

Assays:
[1] = system: STF reporter gene for WNT pathway (Porcupine of the Wnt signaling pathway); test: Inhibitory activity on Super-Top-Flash (STF) reporter gene; assay type: cell-based; settings: HEK293 STF and L wnt3A cells 1:1, 24 hours, Bright-Glo
Procedure: 1. Assay of Inhibitory Activity on Super-Top-Flash (STF) Reporter Gene
HEK293 STF and L wnt3A cells were planted at a ratio of 1:1 in a white 96-well plate with 80 μL of cell suspension per well, which contained 20,000 HEK293 STF cells and 20,000 L wnt3A cells. The cell plate was placed in a carbon dioxide incubator for culture overnight.
The assay compound was serially diluted 5-fold with a discharge gun to the 8th concentration, that is, from 400 μM to 5.12 nM, in duplicate. 78 μL of medium was added to the middle plate, and then 2 μL of the serially diluted compound was transferred to each well of the middle plate according to the corresponding position. After mixing, 20 μL of the mixture was transferred to each well of the cell plate. The cell plate was placed in a carbon dioxide incubator for 24 hours.
100 μL of Promega Bright-Glo reagent was added to each well of the cell plate, and the cell plate was incubated at room temperature for 10 minutes to stabilize the luminescence signal. A multi-label analyzer was used to read results.
The original data of the multi-label analyzer was used for calculation, and the value of IC50 can be obtained by curve fitting. Table 1 provides data of the inhibitory activity of the compounds of the present disclosure on the Wnt signaling pathway.

[2] = system: Capan-2 cells; test: Anti-proliferative activity on Capan-2 cells; assay type: cell-based; settings: Homo sapiens, Capan-2, 120 h; 5 days, CellTiter-Glo
Procedure: 2. Assay of Anti-Proliferative Activity on Capan-2 Cells
Capan-2 cells were planted in a white 96-well plate with 80 μL of cell suspension per well, which contained 5000 Capan-2 cells. The cell plate was placed in a carbon dioxide incubator for culture overnight.
The assay compound was serially diluted 3-fold with a discharge gun to the 9th concentration, that is, from 200 μM to 30 nM, in duplicate. 78 μL of medium was added to the middle plate, and then 2 μL of the serially diluted compound was transferred to each well of the middle plate according to the corresponding position. After mixing, 20 μL of the mixture was transferred to each well of the cell plate. The cell plate was incubated in a carbon dioxide incubator for 5 days. Another cell plate was prepared, and read on the day of drug addition. The signal value was used as the maximum value (The value of Max in the equation below) in data analysis. 25 μL of chemiluminescence detection reagent for cell viability was added to each well of this cell plate, and this cell plate was incubated at room temperature for 10 minutes to stabilize the luminescence signal. A multi-label analyzer was used to read results.
After the cell plate was cultured for 5 days, 25 μL of Promega CellTiter-Glo reagent was added to each well of the cell plate. The cell plate was incubated at room temperature for 10 minutes to stabilize the luminescence signal. A multi-label analyzer was used to read results.
The value of IC50 can be obtained by curve fitting. Table 2 provides the inhibitory activity of the compounds of the present disclosure on Capan-2 cell proliferation.

[3] = system: human pancreatic cancer Capan-2 xenograft tumor; test: In vivo drug efficacy on Capan-2 transplanted tumor in nude mice; settings: for T/C % / TGI %: 5 mg/Kg, BID, 31 days, Capan-2 Xenograft model
Procedure: 3. Assay of In Vivo Drug Efficacy on Capan-2 Transplanted Tumor in Nude Mice
Capan-2 cells were cultured in McCoy's 5A medium, containing 10% fetal bovine serum FBS, in a 37° C. incubator with 5% CO2. Tumor cells were collected after passaging and growing to a suitable concentration and during the logarithmic growth phase. The cells resuspended in McCoy's 5A medium were counted and the cell suspension was adjusted to a concentration of 2×10^7/mL for inoculation.
Establishment of human pancreatic cancer Capan-2 xenograft tumor. Cells were collected and the concentration was adjusted to 2×10^7 (resuspend with McCoy's 5A medium to a cell suspension containing 50% Martigel). Under aseptic conditions, 0.1 mL of tumor cells was injected subcutaneously into the right back of the mouse, and the number of cells inoculated per mouse was 2×10^6. After the tumor was grown to a certain size, digital vernier calipers was used to measure the length (a) and width (b) of the tumor, and the tumor volume was calculated. The calculation formula of tumor volume (TV) was: TV=a×b^2/2.
Capan-2 tumor cells were inoculated. When the tumor was grown to about 150 cubic millimeters, mice were divided into groups with 6 mice in each group. The day of grouping was regarded as day 0, and the drug was administered on the day of grouping. During the assay, the animal's body weight and tumor size were measured twice a week, and the animal's clinical symptoms were observed and recorded every day. For each administration, the most recently weighed animal body weight was referred to.
The evaluation index of anti-tumor activity is relative tumor proliferation rate T/C (%), wherein T/C (%)>40% means ineffective, and T/C (%)<40% and statistically P<0.05 means effective. The calculation formula of T/C (%) is: T/C (%)=(TRTV/CRTV)×100%. TRTV is relative tumor volume of the treatment group, and CRTV is relative tumor volume of the negative control group. TGI (%)^b tumor inhibition rate=(average tumor volume or weight of negative control group-average tumor volume or weight of administration group)/average tumor volume or weight of negative control group×100%. TGI (%)^a=[(1−(average tumor volume of a certain administration group at the time of measurement-average tumor volume of the administration group at the beginning of the administration))/(average tumor volume of vehicle control group at the time of measurement-average tumor volume of the vehicle control group at the beginning of the administration)]×100%.

[4] = Pharmacokinetic evaluation of compounds in mice; assay type: in vivo; settings: mouse, plasma, male CD-1 mice; for clearance / bioavailability / half-life / Vd: IV 0.5 mg/kg; for bioavailability / AUC(0-t): PO 2.5 mg/kg; for half-life: read-out: T1/2 IV (converted); for Vd: read-out: Vdss; for AUC(0-t): read-out: AUC0-last PO; for Cmax: single dose, route not stated (IV 0.5 mg/kg, PO 2.5 mg/kg)
Procedure: Assay 4: Pharmacokinetic Evaluation of Compounds
Assay purpose: Pharmacokinetics of compounds in […] mice was assayed.
CD-1 mice (male, 7-9 weeks old, Shanghai Slack)
The pharmacokinetic characteristics of rodents after intravenous (IV) and oral (PO) administration of compounds were assayed by standard protocols. In the assay, mice were given a single intravenous injection and oral administration. The vehicle for intravenous injection was water. The oral vehicle was 0.5% hypromellose. Four male CD-1 mice were used in this project. Two mice were administered intravenously at a dose of 0.5 mg/kg, and plasma samples were collected at 0 h (before administration) and 0.083, 0.25, 0.5, 1, 2, 4, 8, and 24 h after administration. The other two mice were orally administered by gavage at a dose of 2.5 mg/kg, and plasma samples were collected at 0 h (before administration) and 0.25, 0.5, 1, 2, 4, 8, and 24 h after administration. Whole blood samples within 24 hours were collected, and centrifuged at 3000 g for 15 minutes. The supernatant was separated to obtain a plasma sample, and protein was precipitated by adding 4 times volume of acetonitrile solution containing internal standard. The mixture was centrifuged to obtain a supernatant, and an equal volume of water was added to the obtained supernatant. The mixture was then centrifuged to obtain a supernatant for injection. The blood drug concentration was quantitatively analyzed by LC-MS/MS analysis method, and pharmacokinetic parameters were calculated, such as peak concentration (Cmax), clearance rate (CL), half-life (T1/2), […] (Vdss), area under the drug-time curve (AUC0-last), and bioavailability (F), etc.
The assay results are shown in Table 4: The compounds of the present disclosure have good pharmacokinetic properties.

Row | SMILES | IC50 [1] [nM] | IC50 [2] [nM] | other results
1 | Cc1cc(-c2ncc(CNc3nccn4c(C(=O)Nc5ccccc5)cnc34)cc2C)ccn1 [15 (formate)] | 0.15 |  | 
2 | Cc1cc(-c2ncc(CNc3nccn4c(-c5cccnc5)cnc34)cc2C)ccn1 [Compound 2] | 0.12 | 4.26 | 
3 | Cc1cc(-c2ncc(CNc3nccn4c(-c5ccc(F)cc5)cnc34)cc2C)ccn1 [Compound 3] | 0.96 |  | 
4 | Cc1cc(-c2ncc(CNc3nccn4c(-c5cnn(C)c5)cnc34)cc2C)ccn1 [Compound 4] | 0.14 | 964 | 
5 | Cc1cc(-c2ncc(CNc3nccn4c(N5CCNCC5)cnc34)cc2C)ccn1 [Compound 5] | 9.7 |  | 
6 | CC(=O)N1CCN(c2cnc3c(NCc4cnc(-c5ccnc(C)c5)c(C)c4)nccn23)CC1 [Compound 6] | 0.58 |  | 
7 | Cc1cc(-c2ncc(CNc3nccn4c(-c5ccc(C#N)cc5)cnc34)cc2C)ccn1 [Compound 8] | 6.56 | 109 | 
8 | COc1ccc(-c2cnc3c(NCc4cnc(-c5ccnc(C)c5)c(C)c4)nccn23)cc1 [Compound 9 (formate)] | 8.95 | 103 | 
9 | Cc1cc(-c2ncc(CNc3nccn4c(C5CC5)cnc34)cc2C)ccn1 [Compound 10] | 13.5 | > 1000 | 
10 | Cc1cc(-c2ncc(CNc3nccn4c(-c5ccccc5)ncc34)cc2C)ccn1 [Compound 11] | 0.05 |  | T/C % [3]: 31.29%; TGI % [3]: 82.8%
11 | Cc1cc(-c2ncc(CNc3nccn4c(C5CCN(C(C)C)CC5)cnc34)cc2C)ccn1 [Compound 13 (formate)] | 0.56 |  | 
12 | CC(=O)N1CCC(c2cnc3c(NCc4cnc(-c5ccnc(C)c5)c(C)c4)nccn23)CC1 [Compound 14] | < 0.001 |  | 
13 | Cc1cc(-c2ncc(CNc3nccn4c(C(=O)N(C)C)cnc34)cc2C)ccn1 [Compound 16] | < 0.001 |  | 
14 | Cc1cc(-c2ccc(CNc3nccn4c(-c5ccccc5)cnc34)cc2C)ccn1 [Compound 17] | 0.23 | 1.45 | 
15 | Cc1cc(CNc2nccn3c(-c4ccccc4)cnc23)cnc1-c1ccnn1C [Compound 18] | 0.0128 | 19.1 | 
16 | Cc1cc(-c2ccc(CNc3nccn4c(-c5ccccc5)cnc34)cn2)ccn1 [Compound 19] | 0.017 | 4.61 | 
17 | COc1cc(-c2ncc(CNc3nccn4c(-c5ccccc5)cnc34)cc2C)ccn1 [Compound 20] | 0.4 | 18.5 | 
18 | Cc1cc(-c2ncc(CNc3nccn4c(-c5ccccc5)cnc34)cc2F)ccn1 [Compound 21] |  | 0.43 | 
19 | Cc1cc(-c2ccc(CNc3nccn4c(-c5ccccc5)cnc34)cc2C#N)ccn1 [Compound 22 (formate)] |  | 1.24 | clearance [4]: 8.24 mL/min/kg; bioavailability [4]: 71.9%; half-life [4]: 3.13 h; Vd [4]: 1.09 L/kg; AUC(0-t) [4]: 11.9 µM·h; Cmax [4]: 1820 nM
20 | Cc1cc(-c2ccc(CNc3nccn4c(-c5ccccc5)cnc34)cc2N(C)C)ccn1 [Compound 23] |  | 0.74 | 
21 | Cc1cc(-c2ncc(CNc3nccn4c(-c5cccc(Cl)c5)cnc34)cc2C)ccn1 [Compound 28 (hydrochloride)] | 0.86 | 1.43 | clearance [4]: 4.16 mL/min/kg; bioavailability [4]: 66.6%; half-life [4]: 2.6 h; Vd [4]: 0.553 L/kg; AUC(0-t) [4]: 15.1 µM·h; Cmax [4]: 2340 nM
22 | Cc1cc(-c2ncc(CNc3nccn4c(-c5cccc(F)c5)cnc34)cc2C)ccn1 [Compound 29 (hydrochloride)] | 0.38 | 0.35 | clearance [4]: 5.05 mL/min/kg; bioavailability [4]: 89%; half-life [4]: 2.78 h; Vd [4]: 0.641 L/kg; AUC(0-t) [4]: 17.3 µM·h; Cmax [4]: 2640 nM
23 | Cc1cc(-c2ccc(CNc3nccn4c(-c5ccccc5)cnc34)c(F)c2)ccn1 [Compound 31] |  | 4.7 | 
24 | Cc1cc(-c2ncc(C(C)Nc3nccn4c(-c5ccccc5)cnc34)cc2C)ccn1 (stereo not drawn) [Compound 32 (hydrochloride)] |  | 3.04 | 
25 | Cc1cc(-c2ncc(CNc3nccn4c(-c5cc(F)cc(F)c5)cnc34)cc2OCCN(C)C)ccn1 [Compound 33] |  | 2.3 | clearance [4]: 35.1 mL/min/kg; bioavailability [4]: 37.4%; half-life [4]: 3.69 h; Vd [4]: 9.52 L/kg; AUC(0-t) [4]: 0.975 µM·h; Cmax [4]: 107 nM; T/C % [3]: 17.71%; TGI % [3]: 92.6%
26 | Cc1cc(-c2ncc(CNc3nccn4c(-c5cc(F)cc(F)c5)cnc34)cc2OC2CCN(C)CC2)ccn1 [Compound 34] |  | 1.9 | 
27 | Cc1cc(-c2ncc(C(CO)Nc3nccn4c(-c5ccccc5)cnc34)cc2C)ccn1 (stereo not drawn) [Compound 35] |  | 10.1 | 
28 | Cc1cc(-c2ncc(CNc3nccn4c(-c5cc(F)cc(F)c5)cnc34)cc2F)ccn1 [Compound 36 (formate)] |  | 0.21 | clearance [4]: 6.5 mL/min/kg; bioavailability [4]: 50.6%; half-life [4]: 3.05 h; Vd [4]: 1.35 L/kg; AUC(0-t) [4]: 7.23 µM·h; Cmax [4]: 980 nM; T/C % [3]: 21%; TGI % [3]: 88.86%
29 | Cc1cc(-c2ncc(CC(=O)Nc3ccc(-c4cnccn4)cn3)cc2C)ccn1 [LGK974, reference compound] |  |  | inhibitory effect on human pancreatic cancer Capan-2 xenograft tumor (in words) ([3]; 5 mg/Kg BID (twice a day) for 31 days): inhibitory effect; T/C % [3]: 36.33%; TGI % [3]: 78.3%
